Results on 1 compound are retold here after patent publication US20260217683A1, “PYRIDAZINONE HETEROCYCLIC COMPOUND MYOSIN II INHIBITOR AND USE THEREOF” (Xizang Haisco Pharmaceutical Co., Ltd., priority 2023, published 2026).

For orientation: IC50 means the point on the concentration scale where inhibition reaches its midpoint.

Series [1] deals with rabbit skeletal muscle myosin. The experiment in a line: Inhibition of hydrolysis of ATP by rabbit skeletal muscle myosin. It is filed as biochemical. In short, it runs like this: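 Actin-activated ATPase: F-actin plus rabbit skeletal myosin II with compound in Tris-HCl pH 7.5/KCl/EGTA/MgCl2, started with ATP (3 mM working stock) and run 60 min at 37 °C. Released Pi measured by CytoPhos absorbance at 650 nm against a phosphate standard curve; IC50 fitted from inhibition relative to uninhibited myosin.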

Series [2] relates to B10-Dmd-KO (Mdx) mice. Put plainly: PK/PD detection of mouse model with Dmd (Mdx) gene mutation, plasma CK. The series is classed as in vivo. Particulars: 10 mpk single administration, oral. An excerpt: Experimental objective: Bl0-Dmd-KO (Mdx) mice are DMD function-deficient mice caused by frameshift mutations in the Dmd gene. […] This study has investigated the effects on CK and TNNI2 in the plasma of Mdx mice upon administration of compounds.
Experimental animal: B10-Dmd-KO (C57BL/10ScSnJGpt-Dmdem3Cd4/Gpt), male, 5-7 weeks old, weight 28-30 g, supplier. Gempharmatech Co., Ltd.;
• 1) Running training (D-5): Mdx mice underwent running training in batches. The training parameters were set as three time periods, i.e., the initial speed of 4 m/min for 2 min, then 8 m/min for 8 min, and finally 12 m/min for 30 min, a total of 40 min; • 2) Gripping strength test (D-2): each round was measured three times, and three rounds were performed; • 3) Grouping (DO): the animals were anesthetized by inhalation of isoflurane (concentration: 5%, gas flow rate: 1 L/min), and then a capillary tube was used to collect blood (about 150 μL) via orbital venous sinus into a 0.6 mL centrifuge tube containing EDTA anticoagulant, the plasma wad separated, and the CK value was detected, which was used as the basic value for grouping; • 4) Administration, grasping, and blood collection (D1): The compounds were dissolved in the vehicle 5% DMA+5% HS-15+90% Saline, then orally administered to the mice, and then the grip strength test was conducted (three tests per round for three rounds). […] A capillary tube was used to collect blood (>300 μL) via orbital venous sinus into a 0.6 mL centrifuge tube containing EDTA anticoagulant, and then the animals were euthanized to collect the tibialis anterior muscle (left leg), soleus muscle (both legs) and cardiac muscle, which were weighed and recorded, placed in a homogenization tube and quickly frozen in liquid nitrogen, then stored at −80° C.
Sample processing: After the whole blood anticoagulated with EDTA was centrifuged at 3000 rpm and 4° C. for 10 min, the […] was collected and subpackaged. The separated […] was subjected to a biochemical analyzer (Fully automatic biochemical analyzer Roche C311) to detect the CK value and TNN12 value (Mouse TNNI2 Elisa Kit, ABBEXA, E2207370Y); The […] concentration of the compound and the drug concentration in tibialis anterior muscle, soleus muscle and cardiac muscle were measured by LC/MS instrument.

Series [3] in a line: Pharmacokinetic experiment in mouse muscle tissue (tibialis anterior / plasma). To be noted: male, C57, tibialis anterior muscle / plasma, oral, intragastric 10 mg/kg, read-out: Ratio = Tibialis anterior Conc./Plasma Conc. The series is classed as in vivo, C57 mice. The protocol: 1. Experimental animals: Male C57 mice, 22-25 g, 6 mice/compound. Purchased from Chengdu Ddossy Experimental Animals Co., Ltd.
2. Experimental design: On the day of the experiment, C57 mice were randomly grouped according to their body weight. The animals were fasted with water available for 12 to 14 h one day before the administration and were fed 4 h after the administration. Administration was performed as per Table 10.1.

Read-outs that look alike come from different tables or passages of the source.

On to `O=c1ccc(-c2cnc(OCC(F)(F)F)nc2)nn1Cc1ccc2c(c1)CC2` [Compound 56], for which the IC50 was less than 2500 nM in series [1] (inhibition of hydrolysis of ATP, class symbols, read-out: Rabbit skeletal muscle myosin (IC50)) and 340 nM in series [1] (read-out: IC50 for inhibition of hydrolysis of ATP by rabbit skeletal muscle myosin). Moreover, the “Inhibition rate of CK values (sampled 24 h after (last) dose)” value in series [2] amounted to 88.4%. Besides, the Kp at 6 h in series [3] (6 h) was found to be 175. Besides, the Kp at 24 h in series [3] (24 h) was 316.
